pIC50: −log10 of the molar value.
How the values were obtained:
[1] = tested on: isolate of guinea-pig ileum; test: Anti-histamine activity in an isolate of guinea-pig ileum, suspended in a Tyrode bath at 32°-35° C.; conditions: for pIC50: Cavia porcellus, isolated guinea-pig ileum, Tyrode bath, 32°-35° C., read-out: anti-histamine activity, ED50
Procedure: The anti-histamine activity was tested in an isolate of guinea-pig ileum, suspended in a Tyrode bath at 32°-35° C. according to a protocol described by R. A. Turner (Screening Methods in Pharmacology, Academic Press, 1965, p. 43).

[2] = tested on: isolate of guinea-pig ileum; conditions: background statement on the non-fluorine analog; cited from earlier work
[3] = Activity on the blood stream (vasoactive, antiarrhythmic, hypotensor); conditions: no test described

Row | SMILES | pIC50 [1] | anti-histaminic effect (in words) [2] | antihistaminic effect compared with non-fluorine analog (in words) ([1]; versus non-fluorine analog (Spanish Pat. No. 514 340)) | activity on the blood stream (in words) [3]
1 | c1ccc(C(c2ccccc2)N2CCN(CCCC3(c4ccccc4)OCCO3)CC2)cc1 [Spanish Pat. 514 340, reference compound] | 6.46 | unsatisfactory | – | –
2 | Fc1ccc(C(c2ccc(F)cc2)N2CCN(CCCC3(c4ccccc4)OCCO3)CC2)cc1 [Example 1, 1-(4,4'-difluorobenzhydryl)-4-(2-phenyl-1,3-dioxolane-2-propyl)piperazine] | 6.82 | – | higher than that of its non-fluorine analog | strong activity on the blood stream
